For ten molecules, IC50 results are on record in US10807952B2 (Achillion Pharmaceuticals, Inc., priority 2015, dated 2020).

pIC50: −log10 of the molar value. Where only a bound is given, the exact number is not on record here.

This assay deals with Human Factor D (Homo sapiens (Human), UniProt P00746). Description: Human Factor D assay (Z-L-Lys-SBzl / DTNB, absorbance at 405 nm). Type of assay: biochemical. Particulars: Table 3; Human Factor D 80 nM, assay of Example 13. The protocol: Human Factor D (purified from human serum, Complement Technology, Inc.) at 80 nM final concentration was incubated with test compound at various concentrations for 5 minutes at room temperature in 50 mM Tris, 1M NaCl, pH 7.5. A synthetic substrate Z-L-Lys-SBzl and DTNB (Ellman's reagent) were added to final concentrations of 100 μM each. […] IC50 values were calculated by nonlinear regression of complement Factor D reaction rates as a function of test compound concentration.
Chain of Human Factor D (P00746 26-253): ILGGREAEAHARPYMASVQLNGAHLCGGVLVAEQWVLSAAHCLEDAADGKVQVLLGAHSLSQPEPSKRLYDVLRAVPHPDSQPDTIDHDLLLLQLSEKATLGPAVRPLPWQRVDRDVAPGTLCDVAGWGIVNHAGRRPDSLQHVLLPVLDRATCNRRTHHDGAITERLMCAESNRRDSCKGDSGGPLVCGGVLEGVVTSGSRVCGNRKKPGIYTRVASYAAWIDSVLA
In turn, `CC(=O)c1cn(CC(=O)N2C[C@H](F)C[C@H]2C(=O)Nc2cccc(-c3ccc4[nH]cnc4c3Cl)c2F)c2ccccc12` [Compound 2, (2S,4R)-1-(2-(3-acetyl-1H-indol-1-yl)acetyl)-N-(3-(4-chloro-1H-benzo[d]imidazol-5-yl)-2-fluorophenyl)-4-fluoropyrrolidine-2-carboxamide] gave a pIC50 greater than 6.00. Take `CC(=O)c1nn(CC(=O)N2C[C@H](F)C[C@H]2C(=O)Nc2cccc(-c3ccc4[nH]cnc4c3Cl)c2F)c2ccccc12` [Compound 3, (2S,4R)-1-(2-(3-acetyl-1H-indazol-1-yl)acetyl)-N-(3-(4-chloro-1H-benzo[d]imidazol-5-yl)-2-fluorophenyl)-4-fluoropyrrolidine-2-carboxamide]: the pIC50 is greater than 6.00.

`CC(=O)c1nn(CC(=O)N2[C@@H]3C[C@@H]3C[C@H]2C(=O)Nc2cccc(-c3ccc4[nH]cnc4c3Cl)c2F)c2ccccc12` [Compound 5, (1R,3S,5R)-2-(2-(3-acetyl-1H-indazol-1-yl)acetyl)-N-(3-(4-chloro-1H-benzo[d]imidazol-5-yl)-2-fluorophenyl)-2-azabicyclo[3.1.0]hexane-3-carboxamide] showed a pIC50 greater than 6.00. The same measure for `NC(=O)c1nn(CC(=O)N2C[C@H](F)C[C@H]2C(=O)Nc2cccc(-c3ccc4[nH]cnc4c3)c2F)c2ccccc12` [Compound 6, 1-(2-((2S,4R)-2-(3-(1H-benzo[d]imidazol-5-yl)-2-fluorophenyl-carbamoyl)-4-fluoropyrrolidin-1-yl)-2-oxoethyl)-1H-indazole-3-carboxamide]: greater than 6.00; for `CC(=O)c1cn(CC(=O)N[C@H](C(=O)Nc2cccc(-c3ccccc3Cl)c2F)[C@@H](C)O)c2ccccc12` [Compound 7, (2S,3R)-2-(2-(3-Acetyl-1H-indol-1-yl)acetamido)-N-(2′-chloro-2-fluorobiphenyl-3-yl)-3-hydroxybutanamide]: greater than 6.00; for `CO/N=C(\C)c1ccc(Cl)c(-c2cccc(NC(=O)[C@@H]3C[C@@H](F)CN3C(=O)Cn3nc(C(N)=O)c4ccccc43)c2F)c1` [Compound 8, 1-(2-((2S,4R)-2-((2′-Chloro-2-fluoro-5′-((E)-1-(methoxyimino)ethyl)-[1,1′-biphenyl]-3-yl)carbamoyl)-4-fluoropyrrolidin-1-yl)-2-oxoethyl)-1H-indazole-3-carboxamide]: greater than 6.00. The result for `NC(=O)c1nn(CC(=O)N2C[C@H](F)C[C@H]2C(=O)Nc2cccc(-c3ccc4[nH]c(C(F)(F)F)nc4c3Cl)c2F)c2ccccc12` [Compound 9, 1-(2-((2S,4R)-2-(3-(4-chloro-2-(trifluoromethyl)-1H-benzo[d]imidazol-5-yl)-2-fluorophenyl-carbamoyl)-4-fluoropyrrolidin-1-yl)-2-oxoethyl)-1H-indazole-3-carboxamide] reads greater than 6.00; that for `Cc1nc2cc(-c3cccc(NC(=O)[C@@H]4C[C@@H](F)CN4C(=O)Cn4nc(C(N)=O)c5ccccc54)c3F)ccc2[nH]1` [Compound 10], greater than 6.00; that for `NC(=O)c1nn(CC(=O)N2C[C@H](F)C[C@H]2C(=O)Nc2cccc(-c3ccc4[nH]c(=O)[nH]c4c3Cl)c2F)c2ccccc12` [Compound 11, 1-(2-((2S,4R)-2-((3-(4-Chloro-2-oxo-2,3-dihydro-1H-benzo[d]imidazol-5-yl)-2-fluorophenyl)carbamoyl)-4-fluoropyrrolidin-1-yl)-2-oxoethyl)-1H-indazole-3-carboxamide], greater than 6.00. The result for `Cc1nc2c(Cl)c(-c3cccc(NC(=O)[C@@H]4C[C@@H](F)CN4C(=O)Cn4nc(C(N)=O)c5ccccc54)c3F)ccc2[nH]1` [Compound 12, 1-(2-((2S,4R)-2-(3-(4-chloro-2-methyl-1H-benzo[d]imidazol-5-yl)-2-fluorophenyl-carbamoyl)-4-fluoropyrrolidin-1-yl)-2-oxoethyl)-1H-indazole-3-carboxamide] reads greater than 6.00.

For orientation: pIC50 means −log10 of the IC50, conventionally taken in molar units.
